# According to publication PMC11464717, “Structural basis for antibiotic transport and inhibition in PepT2” (Nature Communications, 2024):
# Values joined by “and” are separate entries in the source; they are usually repeats but may differ in a detail not shown here. Equal values may be shown once. Read-outs that look alike come from different tables or passages of the source. Where a SMILES comes first, the peptide text is derived from it.
# T1: rat PepT2 (Rattus norvegicus, UniProt Q63424)
# T1 construct: His-tagged GFP (C, cleaved yes); made in house; host or cells: HEK293F cells
# T1 sequence (Q63424 1-729): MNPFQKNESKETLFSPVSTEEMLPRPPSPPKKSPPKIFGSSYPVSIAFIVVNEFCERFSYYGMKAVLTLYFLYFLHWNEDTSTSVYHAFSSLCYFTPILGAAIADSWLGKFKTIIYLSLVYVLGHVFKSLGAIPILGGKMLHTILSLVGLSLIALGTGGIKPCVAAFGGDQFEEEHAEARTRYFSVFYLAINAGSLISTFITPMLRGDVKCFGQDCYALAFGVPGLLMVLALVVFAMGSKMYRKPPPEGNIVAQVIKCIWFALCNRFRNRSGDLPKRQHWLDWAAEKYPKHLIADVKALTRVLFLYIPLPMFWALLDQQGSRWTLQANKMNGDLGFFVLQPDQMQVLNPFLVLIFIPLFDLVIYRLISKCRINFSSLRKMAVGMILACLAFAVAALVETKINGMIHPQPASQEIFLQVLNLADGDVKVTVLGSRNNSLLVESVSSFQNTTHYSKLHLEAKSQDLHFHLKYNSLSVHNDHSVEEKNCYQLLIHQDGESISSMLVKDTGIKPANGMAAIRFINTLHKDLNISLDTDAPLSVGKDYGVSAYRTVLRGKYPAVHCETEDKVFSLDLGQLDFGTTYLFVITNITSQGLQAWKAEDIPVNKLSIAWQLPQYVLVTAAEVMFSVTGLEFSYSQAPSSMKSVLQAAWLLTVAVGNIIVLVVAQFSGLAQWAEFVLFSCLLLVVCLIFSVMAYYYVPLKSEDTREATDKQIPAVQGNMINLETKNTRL
# Assays:
# rat PepT2 [1] = target: T1, rat PepT2; assay: Inhibition of uptake of radioactive di-alanine peptide into PepT2 proteoliposomes (IC50); type: biochemical
# Experimental: (§1) The lipids were dried to obtain a thin film using a rotary evaporator and washed twice in pentane before being resuspended at 10 mg mL^–1 in lipid buffer (50 mM potassium phosphate at pH 7.5). These lipid vesicles were frozen and thawed twice in liquid nitrogen and stored at −80 °C until required. For reconstitution, the lipids were thawed and then extruded first through a 0.8-μm filter and then through a 0.4-μm filter. Purified PepT2 at 0.3 μg μl^−1 was added to the lipids at a final lipid:protein ratio of 100:1 (w/w) for transport assays or 10:1 for solid support membrane (SSM) experiments and incubated for 1 h at room temperature, then for a further 1 h on ice. After this time, biobeads were added in batches. After 24 h biobeads were removed and the proteoliposomes harvested by centrifugation at 120,000 g for 40 min before resuspension in lipid buffer at a final protein concentration of 0.25 μg μl^−1, or 0.5 ug ul^−1 for liposomes for SSM. They were subjected to three rounds of freeze–thawing in liquid nitrogen before storage at −80 °C.
# The reaction was initiated through the addition of valinomycin at 1 μM and stopped after 4 minutes by rapidly filtering onto 0.22-μm filters, which were then washed with 2 × 2 mL cold water. […] Experiments were performed three times (from at least 2 independent purifications and reconstitutions) to generate an overall mean and s.d.
# rat PepT2 [2] = target: T1, rat PepT2; assay: Counterflow transport assay in PepT2 proteoliposomes; type: biochemical; conditions: for Counterflow transport, individual experiments (source data Fig 1d): relative to di-alanine; for Counterflow activity relative to L-Ala-L-Ala: Supplementary Table 2, RnPepT2 reconstituted liposome assay; for Ability to drive transport in counterflow: result in words, cloxacillin also at 10 mM
# Experimental: as §1, with “PepT2 was reconstituted into liposomes consisting of a 3:1 POPE:POPG (Avanti polar lipids, USA, Cat. No. 850757 C, 840457 C) using biobeads. The lipids” for “The lipids”
# Proteoliposomes were harvested through centrifugation before resuspending in counterflow buffer (50 mM potassium phosphate pH 7.5) containing 0.5 mM peptide or antibiotic (unless stated otherwise) or water as the negative control and were subjected to four rounds of freeze thawing in liquid nitrogen to fully distribute the buffer and ligand. The proteoliposomes were then extruded through a 0.2-μm filter. Transport was initiated by diluting into counterflow buffer containing 40 μM di-alanine with trace amounts of ^3H di-alanine, transport was allowed to proceed for 5 minutes before termination of the experiments through rapidly filtering onto 0.22-μm filters, which were then washed with 2 × 2 mL cold water. The amount of peptide transported inside the liposomes was calculated as above. Experiments were performed a minimal of five times and plotted as the level of transport for each ligand compared to the level observed with di-alanine as a percentage.
# rat PepT2 [3] = target: T1, rat PepT2; assay: SSM-based electrophysiology (SURFE2R) of reconstituted PepT2; type: biochemical; conditions: result in words
# Experimental: as §1, with “PepT2 was reconstituted into liposomes consisting of a 3:1 POPE:POPG (Avanti polar lipids, USA, Cat. No. 850757 C, 840457 C) using biobeads. The lipids” for “The lipids”
# SSM-based assays were performed on a SURFE^2R N1 (Nanion Technologies) with sensors prepared as follows. 50 μl of 0.5 mM 1-octadecanethiol solution in isopropanol was added to the sensor and left overnight. The sensor was rinsed three times with isopropanol and then three times with water before being allowed to dry. 1.5 ul of 7.5 μg/μl 1,2-diphytanoyl-sn-glycero-3-phosphocholin in n-decane was applied to the surface of the sensor. Immediately after this 50 ul of non-activating buffer were added and left for an hour at room temperature. Proteoliposomes were diluted (5 ul liposomes with 36 ul buffer) in non-activating buffer (20 mM HEPES, 140 mM KCl, 2 mM MgCl2 pH 7.2) and sonicated four times for 10 s in a water bath before application (2–6 μl) to the prepared 3 mm sensors. Sensors were incubated at room temperature and centrifugation at 2800 g for 30 min at 10 °C and incubated at room temperature for at least an hour prior to assaying. The activating buffer was made with the desired concentration of ligand (alanine, di-alanine, or the antibiotics of interest) in non-activating buffer. A single solution exchange workflow was used with activating buffer applied at 1 s and removed at 2 s. This technique was used to distinguish between antibiotics substrate (gives a current, similar to a known peptide control – di-alanine) and inhibitor (no current observed similar to a known non substrate, alanine) and raw traces from 1–3 s are shown in Fig. 1.
# PepT2 = conditions: cell-based assays, inhibition of a radioactive reporter peptide; cited from earlier work
# [4] = target: T2, PepT2 (SLC15A2) from Rattus norvegicus (Rattus norvegicus, UniProt Q63424)
# T2 construct: Proton-coupled peptide transporter PepT2 (SLC15A2), Rattus norvegicus; The extracellular domain is in the protein but was not built in the deposited models; also called rat PepT2; ratPepT2; source: HEK293F, transfected, purified (nickel NTA, TEV cleavage, SEC) in DDM:CHS; also reconstituted into POPE:POPG liposomes; not shown: GFP, C-terminal, cleaved; His tag, C-terminal, cleaved
# [5] = target: T2, PepT2 (SLC15A2) from Rattus norvegicus; assay: cryo-EM structure; PepT2 after size exclusion (DDM:CHS) mixed with 1 mM antibiotic (cefadroxil, amoxicillin or cloxacillin) for one hour, then 1.2 molar excess of nanobody D8, on ice for at least 30 min; PepT2 at 5-6 mg/mL; conditions: both partners purified
# [6] = rat PepT2 in liposomes, inhibition of 3H di-alanine uptake, 4 minutes, mean of n = 3 (SD), read-out: IC50
# [7] = single independent experiments, 3 per ligand, read-out: IC50, individual experiments (source data Fig 1c)
# [8] = 5 min, read-out: Counterflow activity relative to L-Ala-L-Ala
# [9] = IC50, rat PepT2 in liposomes, inhibition of 3H di-alanine uptake, 4 minutes, mean of n = 3 (SD)
# [10] = Supplementary Table 2, RnPepT2 reconstituted liposome assay, read-out: IC50 (µM) relative to L-Ala-L-Ala
# [11] = 0.5 mM ligand, listed as Ala-Ala
Molecule,IC50 (rat PepT2 [1]; [6]) [µM],IC50 (rat PepT2 [1]; [7]),Counterflow activity relative to L-Ala-L-Ala (rat PepT2 [2]; [8]) [%],Capacitance change / current on solid support membrane (rat PepT2 [3]),Ability to drive transport in counterflow (rat PepT2 [2]),other results
"CC1(C)S[C@@H]2[C@H](NC(=O)[C@H](N)c3ccc(O)cc3)C(=O)N2[C@H]1C(=O)O [Amoxicillin, amoxicillin]",270,225 µM and 301 µM and 280 µM,33,significant capacitance change,,"Counterflow transport, individual experiments (source data Fig 1d) (rat PepT2 [2]; 0.5 mM ligand, listed as Amoxacillin): 29 and 39.2 and 34.1 and 35 and 28; Ki (PepT2): 200 to 430 µM"
"CC1(C)S[C@@H]2[C@H](NC(=O)[C@H](N)c3ccccc3)C(=O)N2[C@H]1C(=O)O [Ampicillin, ampicillin]",,,,,,IC50 (rat PepT2 [1]; [9]): 750 µM
"CC1(C)S[C@@H]2[C@H](NC(=O)Cc3ccccc3)C(=O)N2[C@H]1C(=O)O [Benzylpenicillin, benzylpenicillin]",,,0,,cannot transport,"Counterflow transport, individual experiments (source data Fig 5a) (rat PepT2 [2]; 10 mM ligand): 7.2 and 6.8 and 6.2 and 4.1"
"N[C@@H](C(=O)N[C@@H]1C(=O)N2C(C(=O)O)=C(Cl)CS[C@H]12)c1ccccc1 [Cefaclor, cefaclor]",,55 µM and 58 µM and 42 µM,76,,,"Counterflow transport, individual experiments (source data Fig 5a) (rat PepT2 [2]; 0.5 mM ligand): 82 and 72.2 and 77.1 and 71.3; Counterflow activity relative to di-alanine (rat PepT2 [2]; uptake of 3H di-alanine, 5 minutes, level relative to di-alanine, 0.5 mM ligand unless stated otherwise): 76%"
"CC1=C(C(=O)O)N2C(=O)[C@@H](NC(=O)[C@H](N)c3ccc(O)cc3)[C@H]2SC1 [Cefadroxil, cefadroxil]",19,22 µM and 17 µM,120,significant capacitance change,more effectively than di-alanine,"IC50 (rat PepT2 [1]; [10]): 20 µM; Counterflow transport, individual experiments (source data Fig 1d) (rat PepT2 [2]; 0.5 mM ligand): 117 and 120.6 and 118 and 125 and 128; Ki (PepT2): 3 µM"
"Nc1nc(/C(=C/CC(=O)O)C(=O)N[C@@H]2C(=O)N3C(C(=O)O)=CCS[C@H]23)cs1 [Ceftibuten, ceftibuten]",,,0,,cannot transport,"IC50 (rat PepT2 [1]; [10]): 1200 µM; IC50 (rat PepT2 [1]; rat PepT2 in liposomes, inhibition of 3H di-alanine uptake, read-out: IC50): 1000 µM; Counterflow transport, individual experiments (source data Fig 5a) (rat PepT2 [2]; 4 mM ligand): 6.7 and 5.6 and 6.9"
"Cc1onc(-c2ccccc2Cl)c1C(=O)N[C@@H]1C(=O)N2[C@@H]1SC(C)(C)[C@@H]2C(=O)O [Cloxacillin, cloxacillin]",,180 µM and 220 µM and 210 µM,0,,unable to drive transport,"IC50 (rat PepT2 [1]; [9]): 203 µM; Counterflow transport, individual experiments (source data Fig 1d) (rat PepT2 [2]; 0.5 mM ligand): 4.1 and 3.2 and 4 and 1 and 3.1; Counterflow transport, individual experiments (source data Fig 1d) (rat PepT2 [2]; 10 mM ligand): 2.7 and 1.2 and 5.4 and 3.4 and 2.5; Ki (PepT2): 1000 µM"
"N[C@@H](CCCCNC(=O)OCc1ccc([N+](=O)[O-])cc1)C(=O)N1CCC[C@H]1C(=O)O [LZNP, Lys [Z(NO2)]-Proline]",,,,,,"Counterflow transport, individual experiments (source data Fig 1d) (rat PepT2 [2]; 0.5 mM ligand): 3.8 and 4.1 and 6.1 and 5.4"
"CO[C@@]1(NC(=O)C(C(=O)O)c2ccc(O)cc2)C(=O)N2C(C(=O)O)=C(CSc3nnnn3C)CO[C@@H]21 (stereo partly drawn) [Moxalactam, moxalactam]",500,,0,,cannot transport,"Counterflow transport, individual experiments (source data Fig 5a) (rat PepT2 [2]; 1 mM ligand): 5.6 and 5.3 and 6.5 and 4.2"
C[C@H](N)C(=O)O [alanine],,,,non-transported,,
"C[C@H](N)C(=O)N[C@@H](C)C(=O)O [di-alanine, L-Ala-L-Ala] (H-Ala-Ala-OH)",32,,,significant capacitance change,,"IC50 (rat PepT2 [1]; single independent experiments, 3 per ligand, listed as Ala-Ala, read-out: IC50, individual experiments (source data Fig 1c)): 34.6 µM and 31.2 µM and 29.4 µM; Counterflow transport, individual experiments (source data Fig 1d) (rat PepT2 [2]; [11]): 100 and 99.8 and 108.7 and 97.1 and 95.2; Counterflow transport, individual experiments (source data Fig 5a) (rat PepT2 [2]; [11]): 97.2 and 101.1 and 99.1 and 100.3; Counterflow activity relative to L-Ala-L-Ala (rat PepT2 [2]): 100"
di-alanine peptide,,,,,,IC50 of inhibition of the uptake of radioactive (3H) di-alanine into PepT2 proteoliposomes [4]: 32 µM
"nanobody (D8) (VHH, The nanobody was in the complexes solved here (PDB 9BIR, 9BIS, 9BIT, 9BIU); Its expression plasmid is deposited at Addgene; also called the nanobody) VHH: QVQLVESGGGLVQPGGSLRLLCVASGRPFNDYDMGWFRQAPGKEREFVASISWSGRVTDYSDSMKGRCTVSRDNAKGTMFLQMSNLVPRDTAVYYCAAARRRWTFKATNTEEFYETWGQGTQVTVSS",,,,,,binding result [5]: binds
